Assay results published in publication PMC12564946, “A Stable Delivery System for Meretrix meretrix Derived Immunomodulatory Peptide (QLNWD): Fabrication and Characterization of Glycosylated Protein Nanoparticle” (Marine Drugs, 2025).
Ends that are not written are not given here.

Experiment: In vitro release of QLNWD, dialysis bag method in enzyme-free SGF/SIF
Format: in vitro ADME
Conditions: 37 °C, 120 rpm
Procedure: The release profile of QLNWD in NPs was evaluated according to a published dialysis method. A 2 mL aliquot of QLNWD (1 mg/mL) nanoparticle solution was introduced into a presoaked dialysis bag (molecular weight cutoff of 3500 Da). The bag was immersed in 20 mL of simulated gastric fluid (SGF, enzyme-free), which had been preheated at 37 °C for 30 min and adjusted to pH 2. The entire system was incubated at 37 °C under continuous agitation at 120 rpm. After 2 h, the pH was adjusted to 7.0, and 20 mL of simulated intestinal fluid (SIF, enzyme-free), also preheated at 37 °C for 30 min and adjusted to pH 7.0, was added to the system. At predetermined intervals, 1 mL of the release medium was sampled and immediately replenished with an equal volume of fresh SGF/SIF. Samples without QLNWD served as the blank control, and the cumulative release was determined as follows:(2) Cumulative release (%)=(V0Cn+Ve∑1n−1Cn−1)/total QLNWD content×100 where V0 refers to the total volume of simulated gastric or intestinal fluid, Cn refers to the concentration of QLNWD at the nth time, and Ve refers to the volume of each sample.

Cumulative release of QLNWD (12 h: 2 h enzyme-free SGF pH 2, then enzyme-free SIF pH 7.0, dialysis bag 3500 Da): 79.1%
Cumulative release of QLNWD (initial 2 h in enzyme-free SGF pH 2, dialysis bag 3500 Da, QLNWD 1 mg/mL): 38.1%
Substance: QLNWD [QLNWD, Gln-Leu-Asn-Trp-Asp]
